Results published in publication PMC2234497 (The Journal of General Physiology, 2004).

Key:
[1] = target: T1, homomeric (CNGA1) rod CNG channels (Bos taurus, UniProt Q00194); settings: cited from earlier work
T1 sequence (Q00194 1-690): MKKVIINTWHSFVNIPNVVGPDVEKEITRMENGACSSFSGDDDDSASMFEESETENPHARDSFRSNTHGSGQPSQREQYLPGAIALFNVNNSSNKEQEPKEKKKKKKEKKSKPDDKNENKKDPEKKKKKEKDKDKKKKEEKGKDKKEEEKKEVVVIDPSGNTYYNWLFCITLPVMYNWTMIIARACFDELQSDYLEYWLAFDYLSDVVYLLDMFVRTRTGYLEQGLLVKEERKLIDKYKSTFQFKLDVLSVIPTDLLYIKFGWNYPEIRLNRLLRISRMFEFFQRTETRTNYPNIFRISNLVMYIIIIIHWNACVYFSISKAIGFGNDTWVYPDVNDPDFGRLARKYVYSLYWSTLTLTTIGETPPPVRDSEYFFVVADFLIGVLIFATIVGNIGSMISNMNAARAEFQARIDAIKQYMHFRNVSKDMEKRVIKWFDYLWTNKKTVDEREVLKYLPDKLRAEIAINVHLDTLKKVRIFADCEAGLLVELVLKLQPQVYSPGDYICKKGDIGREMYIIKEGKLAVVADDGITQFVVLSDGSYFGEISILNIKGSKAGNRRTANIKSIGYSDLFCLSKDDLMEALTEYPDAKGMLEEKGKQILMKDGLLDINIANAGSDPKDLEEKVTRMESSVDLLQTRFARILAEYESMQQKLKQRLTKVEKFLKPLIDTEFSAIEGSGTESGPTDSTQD

[2] = target: heteromeric (CNGA1 + CNGB1) rod CNG channels (Bos taurus, UniProt Q00194+Q28181); settings: ref Chen et al., 1993; cited from earlier work
Sequence of heteromeric (CNGA1 + CNGB1) rod CNG channels (Q28181 whole entry, one chain of several): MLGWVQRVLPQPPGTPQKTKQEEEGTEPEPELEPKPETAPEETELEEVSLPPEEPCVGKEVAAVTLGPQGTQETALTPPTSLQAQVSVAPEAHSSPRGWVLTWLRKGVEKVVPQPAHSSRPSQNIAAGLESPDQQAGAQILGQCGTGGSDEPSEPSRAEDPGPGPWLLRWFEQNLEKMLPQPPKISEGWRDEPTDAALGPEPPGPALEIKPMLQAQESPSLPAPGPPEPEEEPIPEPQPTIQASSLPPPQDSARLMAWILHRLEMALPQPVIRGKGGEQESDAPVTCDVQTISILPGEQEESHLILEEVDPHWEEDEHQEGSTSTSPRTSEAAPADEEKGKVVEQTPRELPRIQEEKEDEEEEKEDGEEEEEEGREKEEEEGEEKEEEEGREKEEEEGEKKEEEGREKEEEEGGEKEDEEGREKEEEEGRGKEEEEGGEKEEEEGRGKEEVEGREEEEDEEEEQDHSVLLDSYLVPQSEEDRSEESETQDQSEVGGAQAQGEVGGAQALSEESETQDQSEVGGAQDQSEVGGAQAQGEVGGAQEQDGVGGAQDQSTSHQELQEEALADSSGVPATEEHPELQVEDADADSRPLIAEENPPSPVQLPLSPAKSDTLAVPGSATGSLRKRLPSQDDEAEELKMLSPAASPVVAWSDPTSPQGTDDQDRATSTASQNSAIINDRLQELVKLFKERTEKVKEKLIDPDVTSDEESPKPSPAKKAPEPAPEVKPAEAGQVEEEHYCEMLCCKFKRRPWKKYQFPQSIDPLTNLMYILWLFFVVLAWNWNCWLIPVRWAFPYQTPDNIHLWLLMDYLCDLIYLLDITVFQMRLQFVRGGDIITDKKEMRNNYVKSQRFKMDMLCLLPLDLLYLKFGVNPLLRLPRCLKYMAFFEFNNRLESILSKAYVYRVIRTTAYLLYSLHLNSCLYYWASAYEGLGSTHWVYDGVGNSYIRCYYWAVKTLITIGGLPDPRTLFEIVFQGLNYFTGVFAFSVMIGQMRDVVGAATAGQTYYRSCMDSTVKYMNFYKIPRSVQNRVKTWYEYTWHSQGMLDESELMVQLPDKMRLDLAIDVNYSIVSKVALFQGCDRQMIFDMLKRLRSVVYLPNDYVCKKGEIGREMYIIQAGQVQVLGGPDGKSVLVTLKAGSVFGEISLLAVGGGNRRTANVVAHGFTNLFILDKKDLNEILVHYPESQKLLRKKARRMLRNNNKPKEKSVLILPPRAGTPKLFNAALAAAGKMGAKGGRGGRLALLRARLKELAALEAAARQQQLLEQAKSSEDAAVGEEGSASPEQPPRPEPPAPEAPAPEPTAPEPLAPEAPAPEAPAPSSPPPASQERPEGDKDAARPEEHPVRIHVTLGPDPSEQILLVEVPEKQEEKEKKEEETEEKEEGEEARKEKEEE

[3] = target: T1, homomeric (CNGA1) rod CNG channels; type: cell-based, bovine
[4] = model fit of cGMP dose–response without ATR

**Q.** For `CC1=C(/C=C/C(C)=C/C=C/C(C)=C/CO)C(C)(C)CCC1` [all-trans-retinol], which “inhibition of the rod CNG channel” value ([1]; ref Dean et al., 2002) is on record?
**A.** Its value is “inhibited quite well”.

**Q.** Which results are given for `COc1ccc([C@H]2Sc3ccccc3N(CCN(C)C)C(=O)[C@H]2OC(C)=O)cc1` (relative stereo) [l-cis-diltiazem]?
**A.** effect on homomeric channels ([1]; ref Chen et al., 1993): little effect; block of heteromeric channels [2]: sensitively blocks

**Q.** With `Nc1nc2c(ncn2[C@@H]2O[C@@H]3COP(=O)(O)O[C@H]3[C@H]2O)c(=O)[nH]1` [cGMP] as the molecule, how does the “open probability predicted by KcN and L” value ([3]; 2 mM cGMP, no ATR) read?
**A.** The value was 0.95.

**Q.** What about the “KcN, association constant for cyclic nucleotide binding” value [3, 4] of the same molecule?
**A.** The value was 7,200 M^−1.

**Q.** And the “L, equilibrium constant for the allosteric opening transition of the fully liganded channel” value [3, 4]?
**A.** Its value is 19.8.
